From patent US20120295838A1, “Selective poly-substituted glycine antibiotics and related compositions” (priority 2008, published 2012) come the findings set out here.

Where two headings read alike, the source gives them in different places. Square brackets hold non-standard residues; d marks the D form. Ends that are not written are not given here. Peptide text beside a SMILES is read from it. Gly(N-CH2CH2-imidazol-4-yl) = O=C(O)CNCCc1c[nH]cn1; Nspe = C[C@H](NCC(=O)O)c1ccccc1; Nphe = O=C(O)CNCc1ccccc1; Nlys = NCCCCNCC(=O)O

Series [1] is described as follows: RP-HPLC solvent composition at elution as measure of molecular hydrophobicity. In kind it is physicochemical. The following applies: for HPLC elution solvent: Table 1, percent acetonitrile in water, 0.1% (v/v) TFA at HPLC elution; for % ACN at RP-HPLC elution: Table 8, gradient 5 to 95% ACN over 45 min, 0.2 ml/min, average of three replicates. The text has this:
An initial set of 15 ampetoid analogs was synthesized to determine whether peptoids are affected by structural and sequence modifications in a manner consistent with AMP activities. The designs for ampetoids in this library were derived from two antibacterial and selective amphipathic dodecamers, 1 and 2. Peptoid 1 [H-(Nlys-Nspe-Nspe)4-NH2] is composed of 2/3 Nspe, the peptoid analog of phenylalanine, and 1/3 Mys, the peptoid analog of lysine (see FIG. 1 for the structures of representative peptoid monomers and corresponding N-substituents). Peptoid 2 [H-(Mys-Nssb-Nspe)4-NH2] contains 1/3 isoleucine-like Nssb monomers in place of Nspe. The variant sequences were designed to effect changes in chirality, length, hydrophobicity, charge, and amphipathicity. All of these compounds were tested for antibacterial activity against representative BSL1 Gram-negative (E. coli JM109) and Gram-positive (B. subtilis BR151) bacterial strains. As an initial measure of selectivity, the lytic activity of the peptoids was determined against human erythrocytes. Table 1 summarizes the sequences synthesized, the solvent composition at RP-HPLC elution as a relative measure of molecular hydrophobicity, and antibacterial and hemolytic activities.
Following synthesis, peptoid oligomers can be cleaved from the resin, simultaneously removing the tert-butoxycarbonyl (Boc) protecting group from Mys residues, by treatment with 10 ml 2,2,2-trifluoroacetic acid (TFA)/triisopropylsilane/H2O (95:2.5:2.5 by volume) for 30 min. The cleavage mixture is then diluted with 25 ml 50% aqueous acetonitrile, frozen, and lyophilized. Dilution and lyophilization is repeated twice more in order to remove excess TFA. Subsequent to cleavage, peptoids are each purified to >97% homogeneity by preparative scale reversed-phase HPLC using a Waters Prep LC 4000 system, with Waters 2487 dual-wavelength UV detection, and gradient elution (solvent A, 0.1 vol % trifluoroacetic acid (TFA) in water; solvent B, 0.1 vol % TFA in acetonitrile) through a Vydac (Hysperia, Calif.) 214TP101550 C4 peptide/protein column (10-15 μm, 300 Å, 5×25 cm). Following prep HPLC, peptoid purities and crude yields were determined from analytical scale HPLC, performed with a Waters 2695 Separations Module with a Waters 2487 dual-wavelength UV detector and gradient elution (solvent A, 0.1 vol % TFA in water; solvent B, 0.1 vol % TFA in acetonitrile) through a Vydac C4 214TP53 peptide/protein column (5 μm, 300 Å, 3.2×250 mm). The precise gradient employed for HPLC depended on the identity and hydrophobicity of the oligomer in question. All analytical HPLC was performed at 0.5 ml/min flow and 58° C. Preparative HPLC was performed at 50 ml/min flow and room temperature.
Compound synthesis and purification. Peptoids were synthesized using an ABI 433A peptide synthesizer (Applied Biosystems, Inc.) on Rink amide MBHA resin (Novabiochem, Inc.) using the submonomer approach^3. Briefly, bromoacetic acid, activated by diisopropylcarbodiimide was used to form a bromocetylated intermediate on the terminal amide group. Bromide was then substituted with the desired primary amine through SN2 displacement to build the peptoid chain. The amines used in peptoid synthesis include benzylamine, octadecylamine, (s)-(+)-2-amino-3-methylbutane, (s)-α-methylbenzylamine, (r)-(α-methylbenzylamine (all purchased from Sigma-Aldrich), and N-tert-butoxycarbonyl-1,4 diaminobutane (Mys) that was made using a published procedure^83. Resin-bound peptoids were then exposed to a mixture of trifluoroacetic acid (TFA): triisopropylsilane:water (95:2.5:2.5, v:v:v) for ten minutes to cleave peptoids from the solid phase. Peptoids were purified by reversed-phase HPLC (RP-HPLC) (Waters Corporation) using a C18 column and a linear acetonitrile/water gradient. A final purity greater than 97% as measured by analytical RP-HPLC (Waters Corporation) was achieved, and the identity of each molecule was checked using electrospray ionization mass spectrometry. […]

The subject of series [2] is human erythrocytes. As to the kind of experiment: Hemolysis assay. In kind it is cell-based. Put shortly: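 Peptoid dilution series (1:2 in PBS) combined with equal volume of 20 vol % human red cells from heparinised blood, 37 °C for 1 h. Released hemoglobin measured as supernatant absorbance at 350 nm post-centrifugation, scaled between PBS-only wells and 0.2 vol % Triton X-100 total lysis.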

Take `C[C@@H](c1ccccc1)N(CC(=O)N(CCc1cnc[nH]1)CC(=O)N(CCCCN)CC(=O)N(CC(=O)N(CC(=O)N(CCCCN)CC(=O)N(CC(=O)N(CCc1cnc[nH]1)CC(N)=O)[C@@H](C)c1ccccc1)[C@@H](C)c1ccccc1)[C@@H](C)c1ccccc1)C(=O)CN(CCCCN)C(=O)CN(C(=O)CN(C(=O)CNCCCCN)[C@@H](C)c1ccccc1)[C@@H](C)c1ccccc1` [1-Nhis6,12, H-(Nlys-Nspe-Nspe-Nlys-Nspe-Nhis)2-NH2] (H-[Nlys][Nspe][Nspe][Nlys][Nspe][Gly(N-CH2CH2-imidazol-4-yl)][Nlys][Nspe][Nspe][Nlys][Nspe][Gly(N-CH2CH2-imidazol-4-yl)]-NH2): the HPLC elution solvent in series [1] is on record as 37%. The “% ACN at RP-HPLC elution” value in series [1] (C18 column) turned out to be 51.4 % ACN. In series [2], the HD10 is recorded as >200/>200 μM and the HD50 is given as >200/>200 μM.

On to `NCCCCNCC(=O)N(CC(=O)N(CC(=O)N(CCCCN)CC(=O)N(CC(=O)N(CC(=O)N(CCCCN)CC(=O)N(CC(=O)N(CC(=O)N(CCCCN)CC(=O)N(CC(=O)N(CC(N)=O)Cc1ccccc1)Cc1ccccc1)Cc1ccccc1)Cc1ccccc1)Cc1ccccc1)Cc1ccccc1)Cc1ccccc1)Cc1ccccc1` [1achiral, H-(Nlys-Npm-Npm)4-NH2] (H-[Nlys][Nphe][Nphe][Nlys][Nphe][Nphe][Nlys][Nphe][Nphe][Nlys][Nphe][Nphe]-NH2), for which, in series [1] (C18 column), the “% ACN at RP-HPLC elution” value stood at 60.4 % ACN. In series [2], this compound registered an HD10 of 180 µM and an HD50 of over 200 µM.

Take “GIGKFLKKAKKFGKAFVKILKK-NH2 [pexiganan, reference compound]”: the HPLC elution solvent in series [1] came to 38%. Besides, the “HPLC ELUTION” value in series [1] (Table 2, percent acetonitrile in H2O, C18 column, 0.1% TFA, pH 1) was determined as 38%. Also, in series [1] (Table 5, average of three injections, linear 5%-95% acetonitrile/water (0.1% TFA) over 45 minutes, C18 column), the “HPLC elution (% ACN)” value is listed as 50.2 % ACN. Besides, the “% ACN at RP-HPLC elution” value in series [1] (C18 column) amounted to 50.2 % ACN. Further, in series [2] (human, 1 h, pH 7.4), the HD10 came out at 73 µM and the HD50 was over 200 µM.
